Reference: patent US20110081428A1, “Use of thioflavin-like compounds to increase life span and/or health span” (priority 2009, published 2011)

Assays:
[1] = test system: hsp-6 RNA; experiment: Real time quantitative PCR, hsp-6; type: in vivo, Caenorhabditis elegans; conditions: 50 μM ThT, 3 and 6 days of treatment
Method: (§1) Twelve single adults from control or 50 μM ThT populations were picked after 3, 6 and 12 days of treatment into 5 μl of distilled water and flash frozen until extraction. Individual worms were extracted using the RNeasy Micro Kit, TissueLyser and QIAcube (Qiagen). Using the manufacturer's standard Animal Tissue protocol, each sample was homogenized in buffer RLT/Bme (Qiagen) on the TissueLyser (6 min total at 20 Hz). Samples, reagents and columns were then loaded into the QIAcube robot, and processed using the “RNeasy Micro—Animal tissues and cells—DNase digest” program. Each sample was then eluted in 14 μl of Nuclease-free water. cDNA templates for the Real Time PCR reactions were made using a combination of Message Sensor RT kit (Ambion's) and TaqMan PreAmp Master Mix (Applied Biosystems). The entire worm sample was added to the RT reaction and reversed transcribed at 50° C. for 20 min, using Message Sensor's “Two Step RT-PCR Protocol” (sample RT's were randomized). Then 2.5 μl of the cDNA sample was pre-amplified with a “4×Multiplex Primer Mix” for 14 cycles using TaqMan PreAmp master mix and protocol (ABI). Two modifications were made to ABI's protocol: 1. the reaction volume was reduced to 10 μl and 2. after pre-amplification, each cDNA sample was diluted 1:5 with 1XTE Buffer (Promega). cDNA samples were stored at −20° C. until needed. […]

[2] = test system: chn-1 RNA; experiment: Real time quantitative PCR, chn-1; type: in vivo, Caenorhabditis elegans; conditions: 50 μM ThT, 3 and 6 days of treatment
Method: as §1

[3] = test system: CB1157 [unc-54(e1157)I]; experiment: Worm paralysis assay, unc-54 ts mutant; type: in vivo, Caenorhabditis elegans; conditions: restrictive temperature 25° C.
Method: (§3) Scoring for paralysis was initiated 2 and 8 days after temperature upshift for CL4176 and AM140, respectively. […] For sensitivity to EtOH or levamisole resistance, CW152 gas-1 (fc21) X and ZZ26 unc-63(x26)I worms were picked into 0.4 M EtOH or 50 μM levamisole, respectively, equilibrated for 5 min, and scored for paralysis as described above. Treated and untreated worms were compared with an unpaired t-test (implemented in Prism 4, Graphpad™ Software, Inc., San Diego, Calif., USA).

[4] = molecular target: Aβ3-42 aggregates in CL4176 (Homo sapiens, UniProt P05067); experiment: Aβ aggregation in vivo by immunohistochemistry; parameters: species or system Caenorhabditis elegans; conditions: CL4176, 50 μM ThT
Method: For immunofluorescence, N2, unc-He250 52(e669su250), CB1157 unc-54(e1157) or CL4176 dvIs27 [myo-3::Aβ(3 to 42)-let 3′UTR(pAF29); pRF4 (rol-6(su1006))] worms were treated for 24-36 h with or without 50 μM ThT at 25° C. After this period the worms were collected, rinsed, and fixed in 4% paraformaldehyde overnight. After fixation, worms were rinsed twice with 1 ml of 10 mM Tris-HCl pH 7.5 and then permeabilized by 24 h exposure to β-mercaptoethanol at 37° C. followed by collagenase treatment (2 mg/ml for 1-1.5 at 37° C.) to allow for digestion of the cuticle. Paramyosin and perlecans were detected with primary monoclonal antibodies 5-23 and MH3 (developed by Henry Epstein and Robert H. Waterston and obtained from the Developmental Studies Hybridoma Bank developed under the auspices of the NICHD and maintained by The University of Iowa, Department of Biology, Iowa City, Iowa 52242) and AlexaFluor 633 goat anti-mouse (Molecular Probes) as secondary antibody. Soluble oligomers and Aβ peptide were detected with anti polyclonal All (Invitrogen) and 6E10 monoclonal (Covance) primary antibodies, respectively, with AlexaFluor 568 goat anti-rabbit and AlexaFluor 488 goat anti-mouse (Molecular Probes) as secondary antibodies. Images were processed and quantified by using Image Analyst MK II (Novato, Calif.).

[5] = test system: N2 worms; experiment: Locomotory ability / spontaneous movement (body bends); type: in vivo, Caenorhabditis elegans; conditions: 50 μM ThT
Method: Data are presented as bends/min and represent the average of three independent experiments. *p<0.0001. e) Dose-response Kaplan-Meier survival curves of synchronously ageing hermaphrodite N2 populations exposed to 0 (control) to […], f) HBX and g) HBT at 20° C. (−) Control, (▪) 1 nM, ([…]) 10 μM, (▴) 100 μM, (▾) […]. Graphs are representative of three independent experiments.

[6] = test system: CW152 gas-1(fc21) X; experiment: Ethanol sensitivity of gas-1 ts mutant; type: in vivo, Caenorhabditis elegans; conditions: 0.4 M EtOH, after 3 days of treatment
Method: as §3

[7] = test system: wildtype (N2) worms; experiment: Pharyngeal pumping rate; type: in vivo, Caenorhabditis elegans; conditions: 50 μM ThT
Method: FIG. 11A-B. ThT produces small changes in pharyngeal pumping in N2 worms and increases lifespan on a dietary restriction model. a) Pharyngeal pumping rates of wildtype animals raised on 50 μM ThT measured at 3 (left panel) and 6 days of treatment (right panel). Pumping rates of 15 individuals were scored and the averages of three independent experiments are shown (*p<0.01). b) 1 and 10 μM ThT increase lifespan of N2 worms raised on 1×10^9 cfu/ml at 20° C. as compared to untreated worms (left panel). Percent gain in median survival of N2 populations cultured on 0-50 μM ThT (right panel). Bars are representative of 2 to 4 independent experiments per duplicate.

[8] = test system: UNC-52 (perlecan) in HE250; experiment: Perlecan immunolocalization; type: in vivo, Caenorhabditis elegans; conditions: HE250, 50 μM ThT, 24 h at 25° C.
Method: (§2) For fluorescent microscopy, TJ356 zIs356 IV [daf-16::daf-16-gfp+rol-6] or CF2189 Is001(skn-1::gfp+rol-6) were paralyzed with 1 mM levamisole mounted on 1% agarose pads and imaged using Olympus BX51 (60× objective) and HCImage software (Hamamatsu). For immunofluorescence, N2, […], CB1157 unc-54(e1157) or CL4176 dvIs27 [myo-3::Aβ(3 to 42)-let 3′UTR(pAF29); pRF4 (rol-6(su1006))] worms were treated for 24-36 h with or without 50 μM ThT at 25° C. After this period the worms were collected, rinsed, and fixed in 4% paraformaldehyde overnight. […] Paramyosin and perlecans were detected with primary monoclonal antibodies 5-23 and MH3 (developed by Henry Epstein and Robert H. Waterston and obtained from the Developmental Studies Hybridoma Bank developed under the auspices of the NICHD and maintained by The University of Iowa, Department of Biology, Iowa City, Iowa 52242) and AlexaFluor 633 goat anti-mouse (Molecular Probes) as secondary antibody. Soluble oligomers and Aβ peptide were detected with anti polyclonal All (Invitrogen) and 6E10 monoclonal (Covance) primary antibodies, respectively, with AlexaFluor 568 goat anti-rabbit and AlexaFluor 488 goat anti-mouse (Molecular Probes) as secondary antibodies. Images were processed and quantified by using Image Analyst MK II (Novato, Calif.).

[9] = test system: aggregation-prone soluble oligomeric protein (A11 antibody) in N2; experiment: A11 immunolocalization of soluble oligomeric protein, N2; type: in vivo, Caenorhabditis elegans; conditions: N2, 11 days old, 50 μM ThT
Method: as §2

Aβ3-42 aggregates in CL4176, sequence (P05067 674-713): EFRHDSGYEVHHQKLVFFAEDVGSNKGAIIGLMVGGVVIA

## Cc1ccc2c(c1)sc(-c1ccc(N(C)C)cc1)[n+]2C.[Cl-] [ThT, 4-(3,6-dimethyl-1,3-benzothiazol-3-ium-2-yl)-N,N-dimethylaniline chloride]
[1]
  hsp-6 RNA levels: up-regulated
[2]
  chn-1 RNA levels: up-regulated
[3]
  paralysis phenotype of unc-54 mutant: suppressed paralysis
[4]
  Aβ aggregate formation and muscle integrity: reduced aggregate formation and preserved the muscle integrity
[5]
  age-related decline in spontaneous movement: retarded age-related decline in spontaneous movement
[6]
  ethanol sensitivity: decreases the ethanol sensitivity
[7]; after 3 days of treatment
  decrease in pharyngeal pumping rate: ~15%
[7]; after 6 days of treatment
  pharyngeal pumping rate: No difference was detected
[8]
  perlecan organization: restored perlecan organization
[9]
  A11-positive oligomeric material: significantly decreased
